One may read the CC50 as the concentration at which the toxic effect on the cells reaches its halfway point.

The nature of data set [1]: Cytotoxicity against mouse RAW264.7 cells assessed as reduction in cell viability after 24 hrs by MTT assay. It counts as cell-based. In general terms: Formazan colour is commonly taken as a measure of viable cells.
Data set [2] concerns RAW264.7. The data set can be described thus: Cytotoxicity against mouse RAW264.7 cells assessed as reduction in cell viability at 5 uM after 24 hrs by MTT assay. It counts as cell-based. To be noted: raw264.7, 24 h.
Data set [3] relates to RAW264.7. The data set can be described thus: Inhibition of RANKL-induced osteoclast differentiation in mouse RAW264.7 cells assessed as TRAP-positive multinucleated cells level at 2.5 uM incubated with compound in presence of RANKL for 4 days by TRAP staining based light microscopic analysis relative to RANKL alone. Format: functional. Also noted: scale not given: the % may be the effect or the level left.

The nature of data set [4]: Cytotoxicity against mouse RAW264.7 cells assessed as survival rate at 2.5 uM after 24 hrs by MTT assay. To be noted: read-out: Survival. It counts as cell-based.

Turning to `O=C(Nc1ccc(Cl)cc1F)c1cc(I)ccc1O`, the CC50 at 24 h in data set [1] is 8.5 µM. The values for the Activity result in data set [2] and in data set [3] were “Toxic” and 26.1%, respectively. Further, the viability at 24 h, 2.5 µM in data set [4] stood at 94%.
As to `O=C1c2cc(Br)ccc2Oc2cc([N+](=O)[O-])ccc2N1c1ccc(I)cc1F`, the half-maximal cytotoxic concentration (CC50) at 24 h in data set [1] is greater than 40 µM. For the same compound, the Activity result in data set [2] is reported as “Toxic”; in data set [3] it was 78.1%. Further, the viability at 24 h, 2.5 µM in data set [4] was 93.2%.
`O=C1c2cc(Br)ccc2Oc2cc([N+](=O)[O-])ccc2N1c1ccc(F)cc1F`: the CC50 at 24 h in data set [1] was greater than 40 µM. The Activity result in data set [2] is “Toxic”; in data set [3], 90.1%. In data set [4], the viability at 24 h, 2.5 µM turned out to be 94%.
For the compound `O=C1c2cc(Cl)ccc2Oc2cc([N+](=O)[O-])ccc2N1c1ccc(Br)cc1F`, the CC50 at 24 h in data set [1] is greater than 40 µM. In addition, the Activity entry in data set [2] is recorded as “Toxic”; in data set [3] it was 77.2%. Further, the viability at 24 h, 2.5 µM in data set [4] worked out at 100%.
With `O=C(Nc1ccc(Cl)cc1F)c1cc(Br)ccc1O`, in data set [1], the CC50 at 24 h is 9.2 µM. Moreover, the Activity entry in data set [2] is “Toxic”; in data set [3], 39.6%. Moreover, the viability at 24 h, 2.5 µM in data set [4] came out at 103%.
For the compound `O=c1oc2ccc(F)cc2c(=O)n1-c1ccc(Cl)cc1F`, the 50% cytotoxic concentration (CC50) at 24 h in data set [1] turned out to be 7.9 µM. Also, the Activity result in data set [2] was “Toxic”; in data set [3], 29.8%. Besides, the viability at 24 h, 2.5 µM in data set [4] amounted to 107%.
On to `O=C(O)c1cc(I)ccc1O`, for which the 50% cytotoxic concentration (CC50) at 24 h in data set [1] is greater than 40 µM. The results for the Activity result in data set [2] and in data set [3] were “Toxic” and 90.5%, respectively. For the same compound, the viability at 24 h, 2.5 µM in data set [4] is 98.9%.
The matching figures for `O=c1oc2ccccc2c(=O)n1-c1ccc(Cl)cc1F`: 24.4 µM, “Toxic”, 71.1% and 92.5%.
For `O=C1c2cc(F)ccc2Oc2cc([N+](=O)[O-])ccc2N1c1ccc(F)cc1F` the same measures were greater than 40 µM, “Toxic”, 92.4% and 90.1%.
For the compound `O=c1oc2ccc(Br)cc2c(=O)n1-c1ccc(Cl)cc1F`, the CC50 at 24 h in data set [1] turned out to be 7.5 µM. For the same compound, the values for the Activity entry in data set [2] and in data set [3] were “Toxic” and 67.4%, respectively. Also, the viability at 24 h, 2.5 µM in data set [4] turned out to be 82.1%.
The matching figures for `O=c1oc2ccccc2c(=O)n1-c1ccc(I)cc1F`: 24.5 µM, “Toxic”, 66.7% and 105%.
`O=c1oc2ccc(Br)cc2c(=O)n1-c1ccc(Br)cc1F`: the CC50 at 24 h in data set [1] stood at 7.2 µM. Besides, the results for the Activity result in data set [2] and in data set [3] were “Toxic” and 54.9%, respectively. Further, the viability at 24 h, 2.5 µM in data set [4] was determined as 103%.
The matching figures for `O=C(Nc1ccc(Cl)cc1F)c1cc(F)ccc1O`: 7.7 µM, “Toxic”, 27.1% and 99.5%.
For the compound `O=C1c2cc(I)ccc2Oc2cc([N+](=O)[O-])ccc2N1c1ccc(F)cc1F`, the CC50 at 24 h in data set [1] is greater than 40 µM. Further, the Activity result is listed as “Toxic” in data set [2] and 85.4% in data set [3]. For the same compound, the viability at 24 h, 2.5 µM in data set [4] came out at 98.2%.
For `O=C(Nc1ccc(F)cc1F)c1cc(F)ccc1O` the same measures were 15.7 µM, “Toxic”, 93.7% and 99.2%.
For `O=c1oc2ccc(F)cc2c(=O)n1-c1ccc(Br)cc1F` the same measures were 7.2 µM, “Toxic”, 25.5% and 103%.
For `O=c1oc2ccc(I)cc2c(=O)n1-c1ccc(Cl)cc1F` the same measures were 8.9 µM, “Toxic”, 38% and 117%.
As for `O=C(O)c1cc(Cl)ccc1O` [5-CHLOROSALICYLIC ACID], in data set [1], the cytotoxic concentration (CC50) at 24 h is greater than 40 µM. Moreover, the Activity entry is on record as “Toxic” in data set [2] and 96.6% in data set [3]. For the same compound, in data set [4], the viability at 24 h, 2.5 µM is 113%.
The matching figures for `O=C1c2cc(Br)ccc2Oc2cc([N+](=O)[O-])ccc2N1c1ccc(Cl)cc1F`: greater than 40 µM, “Toxic”, 67.1% and 102%.
As for `O=C1c2cc(I)ccc2Oc2cc([N+](=O)[O-])ccc2N1c1ccc(Cl)cc1F`, the half-maximal cytotoxic concentration (CC50) at 24 h in data set [1] is greater than 40 µM. The Activity entry is given as “Toxic” in data set [2] and 75.2% in data set [3]. The viability at 24 h, 2.5 µM in data set [4] stood at 94.9%.
The matching figures for `O=c1oc2ccc(Br)cc2c(=O)n1-c1ccc(F)cc1F`: 16 µM, “Toxic”, 98.3% and 107%.
Regarding `O=C1c2ccccc2Oc2cc([N+](=O)[O-])ccc2N1c1ccc(Cl)cc1F`, the CC50 at 24 h in data set [1] was greater than 40 µM. Further, the Activity result was “Toxic” in data set [2] and 97.1% in data set [3]. Moreover, the viability at 24 h, 2.5 µM in data set [4] is 103%.
For `O=C(O)c1cc(F)ccc1O` the same measures were greater than 40 µM, “Toxic”, 90.9% and 102%.
For `O=c1oc2ccc(F)cc2c(=O)n1-c1ccc(F)cc1F` the same measures were 19.9 µM, “Toxic”, 89.7% and 103%.
Regarding `O=C(O)c1cc(Br)ccc1O`, the CC50 at 24 h in data set [1] was greater than 40 µM. For the same compound, the Activity result in data set [2] is “Toxic”; in data set [3], 96.5%. Also, the viability at 24 h, 2.5 µM in data set [4] came to 101%.
For `O=c1oc2ccc(Br)cc2c(=O)n1-c1ccc(I)cc1F` the same measures were 7.9 µM, “Toxic”, 39% and 96.8%.
Consider `O=C(Nc1ccc(Br)cc1F)c1cc(I)ccc1O`, for which the cytotoxic concentration (CC50) at 24 h in data set [1] amounted to 8.4 µM. Moreover, the Activity result in data set [2] is recorded as “Toxic”; in data set [3] it was 29.9%. In data set [4], the viability at 24 h, 2.5 µM turned out to be 104%.
With `O=C1c2cc(Cl)ccc2Oc2cc([N+](=O)[O-])ccc2N1c1ccc(Cl)cc1F`, the CC50 at 24 h in data set [1] is greater than 40 µM. Further, the Activity result is recorded as “Toxic” in data set [2] and 59.4% in data set [3]. For the same compound, the viability at 24 h, 2.5 µM in data set [4] is 100%.
For `O=c1oc2ccc(Cl)cc2c(=O)n1-c1ccc(F)cc1F` the same measures were 13.4 µM, “Toxic”, 91.9% and 116%.
For `O=C(Nc1ccc(I)cc1F)c1cc(I)ccc1O` the same measures were 6 µM, “Toxic”, 35.1% and 94.2%.
The matching figures for `O=C1c2cc(F)ccc2Oc2cc([N+](=O)[O-])ccc2N1c1ccc(Br)cc1F`: greater than 40 µM, “Toxic”, 88.7% and 98.8%.
For `O=C1c2cc(Cl)ccc2Oc2cc([N+](=O)[O-])ccc2N1c1ccc(F)cc1F`, the CC50 at 24 h in data set [1] was greater than 40 µM. Also, the Activity entry in data set [2] is on record as “Toxic”; in data set [3], 70.6%. Moreover, the viability at 24 h, 2.5 µM in data set [4] is 99.6%.
Take `O=c1oc2ccc(I)cc2c(=O)n1-c1ccc(F)cc1F`: the cytotoxic concentration (CC50) at 24 h in data set [1] was 15.7 µM. The values for the Activity entry in data set [2] and in data set [3] were “Toxic” and 84.8%, respectively. Also, in data set [4], the viability at 24 h, 2.5 µM was determined as 97.5%.
For `O=C1c2cc(F)ccc2Oc2cc([N+](=O)[O-])ccc2N1c1ccc(Cl)cc1F` the same measures were greater than 40 µM, “Toxic”, 93.1% and 91.2%.
In the case of `O=c1oc2ccc(Cl)cc2c(=O)n1-c1ccc(Br)cc1F`, in data set [1], the CC50 at 24 h was determined as 8.1 µM. Also, the Activity result is “Toxic” in data set [2] and 45.5% in data set [3]. Moreover, in data set [4], the viability at 24 h, 2.5 µM came out at 114%.
The matching figures for `O=C(Nc1ccc(Br)cc1F)c1cc(Br)ccc1O`: 7.8 µM, “Toxic”, 33.1% and 99.5%.
In the case of `O=c1oc2ccc(I)cc2c(=O)n1-c1ccc(I)cc1F`, the CC50 at 24 h in data set [1] was 7.6 µM. Also, the Activity result in data set [2] is given as “Toxic”; in data set [3] it was 36.1%. Besides, the viability at 24 h, 2.5 µM in data set [4] was determined as 107%.
Turning to `O=C1c2cc(Cl)ccc2Oc2cc([N+](=O)[O-])ccc2N1c1ccc(I)cc1F`, the CC50 at 24 h in data set [1] was greater than 40 µM. Further, the Activity result in data set [2] is “Toxic”; in data set [3], 73.8%. In addition, in data set [4], the viability at 24 h, 2.5 µM was determined as 89.3%.
As to `O=C(Nc1ccc(F)cc1F)c1cc(I)ccc1O`, the half-maximal cytotoxic concentration (CC50) at 24 h in data set [1] was 13.7 µM. The Activity entry in data set [2] is “Toxic”; in data set [3], 80.5%. Moreover, in data set [4], the viability at 24 h, 2.5 µM came out at 103%.
On to `O=c1oc2ccc(I)cc2c(=O)n1-c1ccc(Br)cc1F`, for which the CC50 at 24 h in data set [1] worked out at 8.3 µM. The Activity entry in data set [2] is listed as “Toxic”; in data set [3] it was 58.2%. Besides, the viability at 24 h, 2.5 µM in data set [4] was 109%.
For `O=c1oc2ccc(Cl)cc2c(=O)n1-c1ccc(Cl)cc1F` the same measures were 6.8 µM, “Toxic”, 32.8% and 99.4%.
The matching figures for `O=C1c2cc(I)ccc2Oc2cc([N+](=O)[O-])ccc2N1c1ccc(Br)cc1F`: greater than 40 µM, “Toxic”, 84.8% and 93.4%.

Values taken from ChEMBL document CHEMBL3808275, “Design, synthesis and SARs of novel salicylanilides as potent inhibitors of RANKL-induced osteoclastogenesis and bone resorption” (Eur J Med Chem, 2016).
